Data from patent US20180289678A1, “PHARMACEUTICAL COMPOSITION, PHARMACEUTICAL DOSAGE FORM, PROCESS FOR THEIR PREPARATION, METHODS FOR TREATING AND USES THEREOF” (Boehringer Ingelheim International GmbH, priority 2009, published 2018).
Where two headings read alike, the source gives them in different places.

Experiment: Study .4: 4-week treatment of diabetic patients, once daily, pharmacokinetic parameters
Assay type: in vivo, human
Settings: for AUCτ,ss,norm Max / AUCτ,ss,norm Median / AUCτ,ss,norm Min / AUCτ,ss,norm gMean: Study .4, steady state, dose-normalized
Description: 5. Pharmacokinetic Parameters
The pharmacokinetic parameters of pharmaceutical compositions and pharmaceutical dosage forms are assessed in healthy volunteer and patient populations. In the studies shown below, the participants fasted on the day of sampling, unless as otherwise stated (see for example study .3). The active substance in the studies below is the compound (I.9), preferably in the crystalline form (I.9X), and the dose of active ingredient is indicated in mg.
For the quantification of plasma concentrations of the active ingredient, 2.7 mL of blood was collected and transferred into an EDTA (ethylendiaminetetraacetic acid)-anticoagulant blood drawing tube. The EDTA-anticoagulated blood samples were centrifuged immediately after collection. Centrifugation lasted for about 10 minutes (at about 2,000×gf to 4,000×gf) at 4-8° C. or within 30 minutes while stored on ice. Concentrations of active substance in EDTA human plasma samples were quantitated using a HPLC/MS/MS method. The assay method comprised a solid phase supported liquid-liquid extraction of human plasma coupled with HPLC/MS/MS determination of the extracted samples. The HPLC/MS/MS assay was validated for the range of 1.11 to 1110 nM in human plasma.
Study .4: 4-week treatment of a diabetic patient population of N=78, once daily administration for 4 weeks. Patients were administered tablets as described in Example 10 (section Examples of formulations).
AUC0-inf:area under the concentration-time curve of the analyte in plasma over the time interval from 0 extrapolated to infinity.
Cmax: maximum concentration of the analyte in plasma.
Tmax: time from dosing to maximum concentration.
AUCT,SS:area under the concentration-time curve of the analyte in plasma over the time interval from 0 to 24 h at steady-state.
Cmax,ss:maximum concentration of the analyte in plasma at steady state over a uniform dosing interval.
tmax,ss:time from dosing to maximum concentration at steady state.

[1] = 10 mg once daily, steady state, Study .4, fasted
[2] = 10 mg single dose, Study .4, fasted
[3] = 25 mg once daily, steady state, Study .4, fasted
[4] = 25 mg single dose, Study .4, fasted

AUCτ,ss Max [1]: 2.6 µM·h | AUCτ,ss Min [1]: 1.35 µM·h | tmax,ss Max [1]: 4.00 h | tmax,ss Min [1]: 0.983 h | Cmax (10 mg once daily, steady state, Study .4, fasted, read-out: Cmax,ss Max): 367 nM | AUC0-inf Max [2]: 2.41 µM·h | AUC0-inf Min [2]: 1.39 µM·h | AUC0-inf,norm Max [2]: 241 nmol·h/L/mg | AUC0-inf,norm Median [2]: 173 nmol·h/L/mg | AUC0-inf,norm Min [2]: 139 nmol·h/L/mg | AUC0-inf,norm gMean [2]: 172 nmol·h/L/mg | tmax Max [2]: 2.50 h | tmax Min [2]: 1.00 h | Cmax (10 mg single dose, Study .4, fasted, read-out: Cmax Max): 796 nM | Cmax (10 mg single dose, Study .4, fasted, read-out: Cmax Min): 205 nM | AUCτ,ss Max [3]: 7.64 µM·h | AUCτ,ss Min [3]: 2.79 µM·h | tmax,ss Max [3]: 3.02 h | tmax,ss Min [3]: 0.750 h | AUC0-inf Max [4]: 7.17 µM·h | AUC0-inf Min [4]: 2.84 µM·h | AUC0-inf,norm Max [4]: 287 nmol·h/L/mg | AUC0-inf,norm Median [4]: 171 nmol·h/L/mg | AUC0-inf,norm Min [4]: 114 nmol·h/L/mg | AUC0-inf,norm gMean [4]: 170 nmol·h/L/mg | tmax Min [4]: 0.750 h | Cmax (25 mg single dose, Study .4, fasted, read-out: Cmax Max): 1030 nM | Cmax (25 mg single dose, Study .4, fasted, read-out: Cmax Min): 496 nM | AUCτ,ss,norm Max (dose 10 mg, plasma): 260 nmol·h/L/mg | AUCτ,ss,norm Median (dose 10 mg, plasma): 184 nmol·h/L/mg | AUCτ,ss,norm Min (dose 10 mg, plasma): 135 nmol·h/L/mg | AUCτ,ss,norm gMean (dose 10 mg, plasma): 185 nmol·h/L/mg | AUCτ,ss,norm Max (dose 25 mg, plasma): 306 nmol·h/L/mg | AUCτ,ss,norm Median (dose 25 mg, plasma): 179 nmol·h/L/mg | AUCτ,ss,norm Min (dose 25 mg, plasma): 112 nmol·h/L/mg | AUCτ,ss,norm gMean (dose 25 mg, plasma): 186 nmol·h/L/mg | AUC (human, plasma, oral, 10 mg, 10 mg once daily, steady state, Study .4, fasted, read-out: AUCτ,ss Mean): 1.87 µM·h | AUC (human, plasma, oral, 10 mg, 10 mg once daily, steady state, Study .4, fasted, read-out: AUCτ,ss Median): 1.84 µM·h | AUC (human, plasma, oral, 10 mg, 10 mg once daily, steady state, Study .4, fasted, read-out: AUCτ,ss gMean): 1.85 µM·h | Cmax (human, plasma, oral, 10 mg, 10 mg once daily, steady state, Study .4, fasted, read-out: Cmax,ss Mean): 259 nM | Cmax (human, plasma, oral, 10 mg, 10 mg once daily, steady state, Study .4, fasted, read-out: Cmax,ss Median): 251 nM | Cmax (human, plasma, oral, 10 mg, 10 mg once daily, steady state, Study .4, fasted, read-out: Cmax,ss gMean): 252 nM | Tmax (human, plasma, oral, 10 mg, 10 mg once daily, steady state, Study .4, fasted, read-out: tmax,ss Mean): 1.72 h | Tmax (human, plasma, oral, 10 mg, 10 mg once daily, steady state, Study .4, fasted, read-out: tmax,ss Median): 1.5 h | Tmax (human, plasma, oral, 10 mg, 10 mg once daily, steady state, Study .4, fasted, read-out: tmax,ss g Mean): 1.61 h | AUC(0-inf) (human, plasma, oral, 10 mg, 10 mg single dose, Study .4, fasted, read-out: AUC0-inf Mean): 1.74 µM·h | AUC(0-inf) (human, plasma, oral, 10 mg, 10 mg single dose, Study .4, fasted, read-out: AUC0-inf Median): 1.73 µM·h | AUC(0-inf) (human, plasma, oral, 10 mg, 10 mg single dose, Study .4, fasted, read-out: AUC0-inf gMean): 1.72 µM·h | Cmax (human, plasma, oral, 10 mg, 10 mg single dose, Study .4, fasted, read-out: Cmax Mean): 309 nM | Cmax (human, plasma, oral, 10 mg, 10 mg single dose, Study .4, fasted, read-out: Cmax Median): 271 nM | Cmax (human, plasma, oral, 10 mg, 10 mg single dose, Study .4, fasted, read-out: Cmax gMean): 291 nM | Tmax (human, plasma, oral, 10 mg, 10 mg single dose, Study .4, fasted, read-out: tmax Mean): 1.5 h | Tmax (human, plasma, oral, 10 mg, 10 mg single dose, Study .4, fasted, read-out: tmax Median): 1.5 h | Tmax (human, plasma, oral, 10 mg, 10 mg single dose, Study .4, fasted, read-out: tmax gMean): 1.44 h | AUC (human, plasma, oral, 25 mg, 25 mg once daily, steady state, Study .4, fasted, read-out: AUCτ,ss Mean): 4.74 µM·h | AUC (human, plasma, oral, 25 mg, 25 mg once daily, steady state, Study .4, fasted, read-out: AUCτ,ss Median): 4.48 µM·h | AUC (human, plasma, oral, 25 mg, 25 mg once daily, steady state, Study .4, fasted, read-out: AUCτ,ss gMean): 4.64 µM·h | Cmax (human, plasma, oral, 25 mg, 25 mg once daily, steady state, Study .4, fasted, read-out: Cmax,ss Mean): 687 nM | Cmax (human, plasma, oral, 25 mg, 25 mg once daily, steady state, Study .4, fasted, read-out: Cmax,ss Median): 671 nM
Compound: OC[C@H]1O[C@@H](c2ccc(Cl)c(Cc3ccc(O[C@H]4CCOC4)cc3)c2)[C@H](O)[C@@H](O)[C@@H]1O [Compound (I.9), 1-chloro-4-(β-D-glucopyranos-1-yl)-2-[4-((S)-tetrahydrofuran-3-yloxy)-benzyl]-benzene]
